One assay concerns Pa #2545. The assay is described as follows: MIC in MHB by standard CLSI microdilution (Example 4). Format: cell-based. As to conditions: Pseudomonas aeruginosa. The text has this: (§1) II. Methods • A. Animals: Six week-old, specific pathogen free, female CD-1 mice purchased from Charles River Laboratories (Wilmington, Mass.) were used for all studies after acclimation in Cubist animal facility. All animal procedures were approved by the Cubist Institutional Animal Care and Use Committee. • B. Bacteria and In Vitro Susceptibility Testing: MRSA #712, Pseudomonas aeruginosa #2245 and #2545, and Klebsiella pneumoniae #573 are clinical isolates; Pseudomonas aeruginosa #44 is an ATCC strain (ATCC#27853). MIC was determined in MHB by standard CLSI microdilution. Comparator Antibiotics Used in Animal Studies: Vancomycin hydrochloride USP was purchased from Hospira (Lake Forest, Ill.); ceftazidime hydrate from Sigma; Primaxin (imipenem and cilastatin) from Merck; ceftaroline was synthesized at a CRO. • D. Mouse Septicemia: Mice received lethal inocula of bacteria in 6% hog gastric mucin intraperitoneally (IP), followed by two treatment doses of antibiotics via subcutaneous (SC) administration at 1 and 6 hrs post-inoculation. The survival of animals was recorded daily for 7 days. The antibiotic dose calculated to protect 50% of the mice (PD50) was derived based on probit analysis of percentage survival. • E. Mouse Thigh and Lung Infections: Mice were rendered neutropenic by two IP injections of cyclophosphamide 4 days (150 mg/kg) and 1 day (100 mg/kg) before bacterial inoculation. Thigh or lung infection was induced by an intramuscular injection of 0.2 mL or intranasal inoculation of 0.1 mL inoculum preparation from an overnight bacterial culture into left thigh or nares. Tissues from one group of mice receiving no treatment (No Rx) were harvested at 1 hr for determination of baseline of bacterial burden. The remaining mice received two treatment doses of vehicles or antibiotics given SC at 1 and 6 hrs post-inoculation. Tissues from the treated mice were harvested at ˜24 hrs post-inoculation. Tissue bacterial burdens were quantified by serial dilution and spiral plating of homogenates.
In general terms: Dilution methods test growth across graded concentrations, often in twofold steps.

Assay [1] has as its system MRSA #712. The assay is described as above. It is filed as cell-based. The conditions noted are these: Staphylococcus aureus; MRSA #712; read-out: MIC.
Text: as §1

Assay [2] has as its system ceftazidime-susceptible Pseudomonas aeruginosa #44 (ATCC#27853). As to the kind of experiment: Lung infection in neutropenic mice. Format: in vivo. As to conditions: Pa #44 lung infection. The method, then: (§2) In vivo efficacy of (I) was evaluated against strains of MRSA, and ceftazidime-resistant Pa and Klebsiella pneumonia (Kpn) in mouse septicemia, thigh and lung infections. Septicemia: CD-1 mice received lethal bacterial inocula IP, followed by 2 doses of antibiotics SC at 1 and 6 hrs post-inoculation. Dose calculated to protect 50% of the mice (PD50) was derived based on probit analysis of percentage survival. Thigh and lung infections: Thighs or lungs of neutropenic mice were inoculated with MRSA or Pa. Two treatment doses were given SC at 1 and 6 hrs post-inoculation. Tissues were harvested at ˜24 hrs post-inoculation and bacterial burdens quantified.
as §1

Assay [3] relates to ceftazidime-susceptible Pseudomonas aeruginosa #2245. As to the kind of experiment: Lung infection in neutropenic mice. Format: in vivo. The conditions noted are these: Pa #2245 lung infection, 3-log CFU reduction vs vehicle at 24 h. The method, then: as §2, §1
Assay [4] relates to ceftazidime-resistant Pseudomonas aeruginosa #2545. The assay is described as follows: Lung infection in neutropenic mice. It is filed as in vivo. The conditions noted are these: Pa #2545 lung infection, neutropenic mice. The protocol: as §2, §1
In assay [5] the test system is MRSA #712. The assay is described as follows: Mouse septicemia (systemic infection), PD50. It is filed as in vivo, Staphylococcus aureus. The conditions noted are these: CD-1 mice, IP inoculum, 2 SC doses at 1 and 6 hrs, 7 day survival. The protocol: as §2
(§3) II. […] MIC was determined in MHB by standard CLSI microdilution. […] The survival of animals was recorded daily for 7 days. The antibiotic dose calculated to protect 50% of the mice (PD50) was derived based on probit analysis of percentage survival. • E. Mouse Thigh and Lung Infections: Mice were rendered neutropenic by two IP injections of cyclophosphamide 4 days (150 mg/kg) and 1 day (100 mg/kg) before bacterial inoculation. […] Tissue bacterial burdens were quantified by serial dilution and spiral plating of homogenates.
(§4) III. […] The dose that protected 50% of the mice (PD50) was calculated by probit analysis based on percentage of mice surviving for 7 days post-inoculation. • C. […]

Assay [6] deals with ceftazidime-resistant Pseudomonas aeruginosa #2545. It is filed as in vivo. As to conditions: Pa #2545; CD-1 mice, IP inoculum, 2 SC doses at 1 and 6 hrs, 7 day survival. The protocol: as §2
as §3, with “II. Methods • A. Animals: Six week-old, specific pathogen free, female CD-1 mice purchased from Charles River Laboratories (Wilmington, Mass.) were used for all studies after acclimation in Cubist animal facility.” for “II.”

In assay [7] the test system is Pseudomonas aeruginosa (n = 100). As to the kind of experiment: MIC90, expanded MIC panel (Table 4). The conditions noted are these: 100 Pa strains. It is filed as cell-based. The method, then:
(§5) II. […] MIC90 values were defined as the concentration required to inhibit growth of 90% of the strains tested. • C. SAR was performed using the following isolates: Sa399 (ATCC43300, MRSA), Sa1721 (NARSA NRS384, MRSA USA 300), Pa44 (ATCC27853), and 4 clinical isolates (Pa2241, Pa2086 (mucoid strain), Pa2694 and Pa2698). • D. The in vitro antibacterial activity of the compound of formula (I) was further evaluated in an expanded MRSA and Pa MIC panel (see Table 4 and FIG. 6).

Another assay has as its system MRSA (n = 21). The assay is described as follows: MIC90, expanded MIC panel (Table 4). It is filed as cell-based. The conditions noted are these: Staphylococcus aureus; 21 MRSA strains; read-out: MIC90 MRSA (n = 21). The method, then:
as §5

The test system of a further assay is Pa2086 (mucoid strain). As to the kind of experiment: MIC, broth microdilution (Example 5), Table 3. It is filed as cell-based. The conditions noted are these: Pseudomonas aeruginosa. The protocol: as §5
In a further assay the test system is Sa399 (ATCC43300, MRSA). As to the kind of experiment: MIC, broth microdilution (Example 5), Table 3. As to conditions: Staphylococcus aureus. It is filed as cell-based. The protocol:
as §5

For assay [8], the system named is Sa1721 (NARSA NRS384, MRSA USA 300). As to the kind of experiment: MIC, broth microdilution (Example 5), Table 3. It is filed as cell-based. As to conditions: Staphylococcus aureus. The method, then: as §5
In the next assay the test system is Pa2694. The assay is described as follows: MIC, broth microdilution (Example 5), Table 3. It is filed as cell-based. As to conditions: Pseudomonas aeruginosa. The protocol:
as §5

The test system of another assay is Pa44 (ATCC27853). The assay is described as follows: MIC, broth microdilution (Example 5), Table 3. Format: cell-based. The conditions noted are these: Pseudomonas aeruginosa. The method, then:
as §5

A further assay concerns Pa2698. As to the kind of experiment: MIC, broth microdilution (Example 5), Table 3. It is filed as cell-based. As to conditions: Pseudomonas aeruginosa. The protocol: as §5
The next assay concerns Pa2241. As to the kind of experiment: MIC, broth microdilution (Example 5), Table 3. Format: cell-based. As to conditions: Pseudomonas aeruginosa. The protocol: as §5
Assay [9] has as its system MRSA #712. As to the kind of experiment: Thigh infection in neutropenic mice. It is filed as in vivo, Staphylococcus aureus. As to conditions: MRSA #712 thigh infection, neutropenic mice, 2 SC doses at 1 and 6 hrs, 24 h, vs vehicle. The protocol:
as §2
(§6) II. Methods • A. Animals: Six week-old, specific pathogen free, female CD-1 mice purchased from Charles River Laboratories (Wilmington, Mass.) were used for all studies after acclimation in Cubist animal facility. All animal procedures were approved by the Cubist Institutional Animal Care and Use Committee. • B. Bacteria and In Vitro Susceptibility Testing: MRSA #712, Pseudomonas aeruginosa #2245 and #2545, and Klebsiella pneumoniae #573 are clinical isolates; Pseudomonas aeruginosa #44 is an ATCC strain (ATCC#27853). MIC was determined in MHB by standard CLSI microdilution. […] The survival of animals was recorded daily for 7 days. The antibiotic dose calculated to protect 50% of the mice (PD50) was derived based on probit analysis of percentage survival. • E. Mouse Thigh and Lung Infections: Mice were rendered neutropenic by two IP injections of cyclophosphamide 4 days (150 mg/kg) and 1 day (100 mg/kg) before bacterial inoculation. […] Tissue bacterial burdens were quantified by serial dilution and spiral plating of homogenates.

Assay [10] concerns Pseudomonas aeruginosa #44 (ATCC#27853). The assay is described as follows: Mouse septicemia (systemic infection), PD50. It is filed as in vivo. As to conditions: Pa #44 (ATCC27853); CD-1 mice, IP inoculum, 2 SC doses at 1 and 6 hrs, 7 day survival. The method, then: as §2, §6, §4
Where [11] appears, read: 2 SC doses at 1 and 6 hrs, 24 h, vs vehicle.
The mark [12] stands for this setting: 3-log CFU reduction vs vehicle at 24 h.

Values after ≈ are worked out from the molar mass of the structure shown. Values joined by “and” are separate entries in the source; they are usually repeats but may differ in a detail not shown here. Identical values can stand only once.

One may read the MIC as the lowest concentration that inhibits growth of the organism. The MIC90 is an inhibitory concentration at the 90% level, which refers to growth in some studies and to a panel of isolates in others. On to `CO/N=C(\C(=O)N[C@@H]1C(=O)N2C(C(=O)[O-])=C(C[n+]3ccc(N)c(NC(=O)Nc4ccc(CCNC(=N)N)cc4)c3)CS[C@H]12)c1nc(N)sc1Cl` [(I)], for which the MIC in the assay on Pa #2545 is 2 µg/mL (≈ 2.69 µM); with MRSA #712 [1] it was 2 µg/mL (≈ 2.69 µM); against Pa2086 (mucoid strain) it was 8 µg/mL (≈ 10.8 µM); against Sa399 (ATCC43300, MRSA), 2 µg/mL (≈ 2.69 µM); in assay [8], 8 µg/mL (≈ 10.8 µM); in the assay on Pa2694, 8 µg/mL (≈ 10.8 µM). For the same compound, the MIC against Pa44 (ATCC27853) was found to be 2 µg/mL (≈ 2.69 µM); against Pa2698, 8 µg/mL (≈ 10.8 µM); in the assay with Pa2241 it was 1 µg/mL (≈ 1.35 µM). The results for the “Lung (L) ED−2log” value in assay [2] (setting [11]) and in assay [4] (setting [11]) were 1.8 (L) mg/kg and 6.7 (L) mg/kg, respectively. Further, the “ED−3 log” value in assay [2] (setting [12]) is reported as 4.1 mg/kg; in assay [3] it was 5.2 mg/kg; in assay [4] (setting [12]), 11.4 mg/kg. Further, the figures for the “Septicemia PD50 (± SE)” value (in the assay with MRSA #712 [5]; in assay [6]; in [10]) were 2.0 ± 0.3 mg/kg, <10.4 mg/kg and 5.3 ± 0.7 mg/kg, respectively. For the same compound, the MIC90 was determined as 8 µg/mL (≈ 10.8 µM) in assay [7] and 2 µg/mL (≈ 2.69 µM) in the assay on MRSA (n = 21). The “Thigh (T) ED−2log” value in the assay with MRSA #712 [9] is 68.9 mg/kg and 68.9 (T) mg/kg.

The values are drawn from patent US8809314B1, “Cephalosporin compound” (Cubist Pharmaceuticals, Inc., priority 2012, dated 2014).
